System: 6xHis-tagged CARM1 EVH1 domain (CARM1 28-140)
Experiment: FP assay with fluorescein-labelled BAF155 peptide and 6xHis-CARM1 28-140
Type: binding
Conditions: fluorescein-labelled BAF155 peptide 5 nM; protein titrated; 50 mM HEPES pH 7.5, 150 mM NaCl, 0.005% NP-40, 0.5 mM EDTA; 2 h, room temperature; triplicates; ex 485/20 nm, em 528/20 nm
Procedure: The DNA fragment encoding CARM1 residues 28–140 was cloned into pET21a expression vector (Novagen, Madison, WI). DNA construct was transformed into BL21(DE3)pLysS E. coli expression strain. Luria–Bertani media (1–2L) was seeded with 10 ml of overnight starter culture and grown at 37 °C until OD600 nm reached 0.6. Protein expression was then induced with the addition of 0.2 mM isopropyl β-D-1-thiogalactopranoside for 4 h at ambient temperature. Bacterial pellets were then lysed by sonication on ice in lysis buffer (50 mM Tris, pH 7.5, 150 mM NaCl, 0.05% NP-40, supplemented with 1 × protease inhibitor cocktail before use) with 70% amplitude, 30 s on, 30 s off, 10 cycles. […] Protein concentration was then determined using Bradford assay and protein purity was assessed by SDS–PAGE and Coomassie Blue staining.
Fluorescein-labelled BAF155 peptide (constant final concentration at 5 nM) was mixed with titrations of purified recombinant proteins or BSA control in binding buffer (50 mM HEPES, pH 7.5, 150 mM NaCl, 0.005% NP-40, 0.5 mM EDTA) and incubated in dark at room temperature for 2 h. […] Polarization measurements were then corrected for background contributions to the measured intensity by subtracting the parallel and perpendicular intensity readings, from the blank buffer-only wells, from the intensity readings for each data point. […]

“bovine serum albumin (BSA): bovine serum albumin control” was tested, and the Fluorescence polarization change was “no change in signal”.
